Laboratory results reported in US20130261133A1, “Therapeutic Compounds for Protozoal and Microbial Infections and Cancer” (THE UNIVERSITY OF MONTANA, priority 2012, published 2013).

test system: Leishmania donovani; experiment: Antileishmanial assay, Leishmania in infected macrophages (L. donovani); conditions: Leishmania donovani, Macrophage, read-out: IC50 Leishmania in infected macrophages

Structure (SMILES) | IC50
C=C[C@@H](C#CC#C[C@@H](CCCCCCCCC)NC(=O)c1ccccn1)OC(C)=O [Compound 62, (3S,8R)-8-(picolinamido)heptadeca-1-en-4,6-diyn-3-yl acetate] | 89 nM
C=C[C@@H](C#CC#C[C@@H](CCCCCCCCC)NC(=O)c1ccc(F)cc1)OC(C)=O [Compound 67, (3S,8R)-8-(4-fluorobenzamido)heptadeca-1-en-4,6-diyn-3-yl acetate] | 72 nM
C=C[C@@H](C#CC#C[C@@H](CCCC1CCCCC1)NC(=O)c1ccccc1)OC(C)=O [Compound 79, (3S,8R)-8-benzamido-11-cyclohexylundeca-1-en-4,6-diyn-3-yl acetate] | 27 nM
C=C[C@@H](C#CC#C[C@@H](CCCCCCCCC)NC(=O)c1cc(Cl)cc(Cl)c1)OC(C)=O [Compound 70, (3S,8R)-8-(3,5-dichlorobenzamido)heptadeca-1-en-4,6-diyn-3-yl acetate] | 252 nM
C=C[C@H](O)C#CC#C[C@@H](CCCCCCCCC)NCC [Compound 78, (3S,8R)-8-(ethylamino)heptadeca-1-en-4,6-diyn-3-ol] | 30 nM
C=C[C@@H](C#CC#CC(CCCCCCCCC)NC(=O)c1ccc(OC)cc1)OC(C)=O (stereo in doubt) [Compound 42, (3S,8R)-8-(4-methoxybenzamido)heptadeca-1-en-4,6-diyn-3-yl acetate] | 165 nM
CCCCCCCCC[C@H](C#CC#C[C@@H](O)c1ccc(OCC)cc1)NCCCC [Compound 77, (1S,6R)-6-(butylamino)-1-(4-ethoxyphenyl)pentadeca-2,4-diyn-1-ol] | 443 nM
C=C[C@H](O)C#CC#C[C@@H](CCCCCCCCC)NC(C)=O [Compound 59, N-((3S,8R)-3-hydroxyheptadeca-1-en-4,6-diyn-8-yl)acetamide] | 18 nM
C=C[C@@H](C#CC#C[C@@H](CCCCCCCCC)NC(=O)c1cnccn1)OC(C)=O [Compound 63, (3S,8R)-8-(pyrazine-2-carboxamido)heptadeca-1-en-4,6-diyn-3-yl acetate] | 42 nM
C=C[C@@H](C#CC#C[C@@H](CCCCCCCCC)NC(=O)c1cc(C)on1)OC(C)=O [Compound 61, (3S,8R)-8-(5-methylisoxazole-3-carboxamido)heptadeca-1-en-4,6-diyn-3-yl acetate] | 77 nM
C=C[C@@H](C#CC#CC(CCCCCCCCC)NC(=O)c1ccc(Cl)c(Cl)c1)OC(C)=O (stereo in doubt) [Compound 40, (3S,8R)-8-(3,4-dichlorobenzamido)heptadeca-1-en-4,6-diyn-3-yl acetate] | 428 nM
CCCCCCCCC[C@H](C#CC#C[C@@H](O)c1ccccc1)NCCCC [Compound 76, (1S,6R)-6-(butylamino)-1-phenylpentadeca-2,4-diyn-1-ol] | 113 nM
C=C[C@H](O)C#CC#C[C@@H](CCCCCCCCC)NC(=O)c1ccccc1 [Compound 56, N-((3S,8R)-3-hydroxyheptadeca-1-en-4,6-diyn-8-yl)benzamide] | 5 nM
C=C[C@@H](C#CC#C[C@@H](CCCCCCCCC)NC(=O)c1ccccc1Cl)OC(C)=O [Compound 64, (3S,8R)-8-(2-chlorobenzamido)heptadeca-1-en-4,6-diyn-3-yl acetate] | 109 nM
C=C[C@H](O)C#CC#C[C@@H](CCCCCCCCC)NCCCC [Compound 55, (3S,8R)-8-(butylamino)heptadeca-1-en-4,6-diyn-3-ol] | 3 nM
C=C[C@H](O)C#CC#C[C@@H](CCCCCCCCC)NC(=O)OCC [Compound 57, ethyl((3S,8R)-3-hydroxyheptadeca-1-en-4,6-diyn-8-yl)carbamate] | 10 nM
C=C[C@@H](C#CC#CC(CCCCCCCCC)NC(=O)c1ccc(C)cc1)OC(C)=O (stereo in doubt) [Compound 41, (3S,8R)-8-(4-methylbenzamido)heptadeca-1-en-4,6-diyn-3-yl acetate] | 126 nM
C/C=C/[C@H](O)C#CC#C[C@@H](CCCCCCCCC)NCCCC [Compound 75, (4S,9R,E)-9-(butylamino)octadeca-2-en-5,7-diyn-4-ol] | 31 nM
